This is an account of results in patent US20170275270A1, “BENZYL SUBSTITUTED INDAZOLES” (Bayer Pharma Aktiengesellschaft, priority 2014, published 2017).

For assay [1], the target named is T1, catalytic domain of human Bub1 (amino acids 704-1085) (Homo sapiens, UniProt O43683).
T1 construct: catalytic domain of human Bub1 (amino acids 704-1085); His6 (N); made in house; host or cells: Hi5 insect cells
The experiment in a line: Bub1 kinase assay (TR-FRET). The assay is classed as biochemical. Summed up: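 TR-FRET read-out (Eu-anti-mouse IgG/anti-phosphoserine antibody to streptavidin-XL665 on biotinylated peptide) after EDTA stop and 1 h complex formation at 22° C. Kinase reaction ran 60 min at 22° C with 1:3.4 serial dilutions from 2 mM DMSO stocks. IC50 from 4-parameter logistic fit of normalized inhibition.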
A general note: In TR-FRET formats the signal depends on donor and acceptor labels being close together.

The target in another assay is Bub1 (Homo sapiens, UniProt O43683). The experiment in a line: Formation-Assay: phosphorylation status of histone 2A by inhibition of kinase activity of Bub1. Format: cell-based. The following applies: Biological Assay 4.1: H2A Formation IC50, co-treatment with Nocodazole 1 μg/ml, 16 h. On the procedure:
Biological Assay 4.1: Formation-Assay
Cell-Based Mechanistic Assay: Changes of Phosphorylation Status of Histone 2A by Inhibition of Kinase Activity of Bub1
This assay determines the suppression of histone 2A phosphorylation by a Bub1 kinase inhibitor during co-treatment with Nocodazole. 25000 cells (cells were ordered from ATCC) were seeded in 96 well plate for 5 h at 37° C. Cells were treated with Nocodazole (1 μg/ml) and varying concentrations (between 3 nM and 10 μM) of test compounds for 16 h. Cells were fixed (20 min, Fixing solution R&D), washed three times with PBS and blocked with Odyssey blocking buffer before incubating with the primary antibody against phosphorylated H2A (5 μg/ml ABIN482721) overnight at 2-8° C. After washing, secondary IRDye-labeled antibody mix with cell stains was added for 1 h and washed again with PBS. Plates were scanned with LiCor Odyssey Infrared Imager CLx at 800 nm for P-H2A and at 700 nm for cell stains Draq5/Sapphire. The quotient of 800 nm and 700 nm for Nocodazole only treated cells was set as 100% and the quotient of 800 nm and 700 nm of untreated cells was set as 0%.
Histone H2A is an immediate intracellular substrate of Bub1 kinase. Determination of the phosphorylation status of Histone H2A provides a direct measure of the intracellular activity of Bub1 kinase.

The next assay has as its system HeLa. In words: Proliferation assay (HeLa cell line).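 Note: crystal violet staining of cell number, scaled between a plate stained before dosing (0%) and cells left untreated (100%), compounds tested at 0.001-10 µM, IC50 via 4-parameter fit.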
Assay [2] relates to HeLa human cervical tumor cells. The experiment in a line: Proliferation assay (HeLa+Paclitaxel).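 Note: compounds at 0.001-10 µM added 4 h after paclitaxel, 92 h exposure, absorbance normalized to zero-point plate (0%) and untreated cells (100%), IC50 from 4-parameter fit.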 The following applies: read-out: Biological Assay 3: HeLa + Paclitaxel IC50, 3 nM paclitaxel, crystal violet.
Procedure: Proliferation Assay (HeLa+Paclitaxel):
Cultivated HeLa human cervical tumor cells (DSMZ ACC-57) were plated at a density of 3000 cells/well in a 96-well multititer plate in 200 μL of growth medium supplemented 10% fetal calf serum. After 24 hours, the cells of one plate (zero-point plate) were stained with crystal violet (see below). The medium of the other plates was supplemented with 3 nM of paclitaxel (Sigma-Aldrich) and the cells were incubated at 37° C. After 4 hours the test substances were added in various concentrations (0 μM, as well as in the range of 0.001-10 μM; the final concentration of the solvent dimethyl sulfoxide was adjusted to 0.1%) using a Hewlett-Packard HP D300 Digital Dispenser. The cells were incubated for another 92 hours at 37° C. in the presence of test substances. Cell proliferation was determined by staining the cells with crystal violet: the cells were fixed by adding 20 μL/measuring point of an 11% glutaric aldehyde solution for 15 minutes at room temperature. After three washing cycles of the fixed cells with water, the plates were dried at room temperature. The cells were stained by adding 100 μL/measuring point of a 0.1% crystal violet solution (pH 3.0). After three washing cycles of the stained cells with water, the plates were dried at room temperature. The dye was dissolved by adding 100 μL/measuring point of a 10% acetic acid solution. […] The change of cell number, in percent, was calculated by normalization of the measured values to the absorbtion values of the zero-point plate (=0%) and the absorbtion of the untreated (0 μm) cells (=100%). The IC50 values were determined by means of a 4 parameter fit.
The mark [3] stands for this setting: Biological Assay 1: Bub1 kinase assay median IC50, 10 μM ATP.
Where [4] appears, read: Homo sapiens, 96 h, read-out: Biological Assay 2: Proliferation assay (HeLa cell line) median IC50.
Setting [5] is: 10 μM ATP, read-out: Biological Assay 1: Bub1 kinase assay median IC50.

Several values for one entry are separate records, joined by “and”; a condition that tells them apart may be missing. Equal entries are not always repeated. Structures can show the parent of a compound that is named as a salt. Where two headings read alike, the source gives them in different places.

Chain of Bub1 (O43683 whole entry): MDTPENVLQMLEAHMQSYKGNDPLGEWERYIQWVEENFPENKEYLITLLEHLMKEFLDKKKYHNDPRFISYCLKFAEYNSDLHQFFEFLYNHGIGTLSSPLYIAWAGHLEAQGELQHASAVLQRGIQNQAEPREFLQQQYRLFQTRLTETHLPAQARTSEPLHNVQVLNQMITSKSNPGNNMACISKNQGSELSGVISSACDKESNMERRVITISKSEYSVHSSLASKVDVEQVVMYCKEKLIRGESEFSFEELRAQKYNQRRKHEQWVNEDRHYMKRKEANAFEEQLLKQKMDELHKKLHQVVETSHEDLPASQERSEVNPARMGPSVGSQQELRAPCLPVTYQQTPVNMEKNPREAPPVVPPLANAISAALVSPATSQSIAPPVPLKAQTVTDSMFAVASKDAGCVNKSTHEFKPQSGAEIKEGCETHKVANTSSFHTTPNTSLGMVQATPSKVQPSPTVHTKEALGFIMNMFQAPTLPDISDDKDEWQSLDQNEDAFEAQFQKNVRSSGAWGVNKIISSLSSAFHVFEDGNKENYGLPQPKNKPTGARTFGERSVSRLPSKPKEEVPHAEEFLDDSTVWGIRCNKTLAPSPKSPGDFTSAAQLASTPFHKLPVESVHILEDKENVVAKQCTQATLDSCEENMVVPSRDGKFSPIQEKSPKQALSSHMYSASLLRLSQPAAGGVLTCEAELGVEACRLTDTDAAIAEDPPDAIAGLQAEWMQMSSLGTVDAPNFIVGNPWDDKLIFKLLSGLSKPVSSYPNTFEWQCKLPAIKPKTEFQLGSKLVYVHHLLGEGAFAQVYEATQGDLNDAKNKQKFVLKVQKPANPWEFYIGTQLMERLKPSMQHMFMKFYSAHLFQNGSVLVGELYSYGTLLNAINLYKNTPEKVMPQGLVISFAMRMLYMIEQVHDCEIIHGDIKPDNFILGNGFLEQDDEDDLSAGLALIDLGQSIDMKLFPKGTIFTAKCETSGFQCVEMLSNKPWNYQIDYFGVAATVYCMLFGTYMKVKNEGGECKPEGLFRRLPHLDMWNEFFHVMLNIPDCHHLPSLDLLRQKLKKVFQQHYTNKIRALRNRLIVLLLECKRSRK
T1 sequence (O43683 704-1085): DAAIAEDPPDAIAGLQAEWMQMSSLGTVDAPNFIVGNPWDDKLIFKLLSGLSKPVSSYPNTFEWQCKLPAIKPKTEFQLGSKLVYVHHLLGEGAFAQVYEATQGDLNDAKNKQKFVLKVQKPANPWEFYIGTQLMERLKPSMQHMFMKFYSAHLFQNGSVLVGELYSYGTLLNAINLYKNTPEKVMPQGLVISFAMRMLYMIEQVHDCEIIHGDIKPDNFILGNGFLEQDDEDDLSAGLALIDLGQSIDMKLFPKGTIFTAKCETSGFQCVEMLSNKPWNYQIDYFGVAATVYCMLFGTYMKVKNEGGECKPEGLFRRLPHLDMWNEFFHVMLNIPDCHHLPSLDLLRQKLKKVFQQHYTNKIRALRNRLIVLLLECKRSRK

For `CCOc1cc(F)c(Cn2nc(-c3nc4c(c(Nc5ccncc5)n3)CCNC4)c3ccccc32)c(F)c1` [Example 2-18-1, 2-[1-(4-ethoxy-2,6-difluorobenzyl)-1H-indazol-3-yl]-N-(pyridin-4-yl)-5,6,7,8-tetrahydropyrido[3,4-d]pyrimidin-4-amine], the IC50 is 6.1 nM in assay [1] (setting [3]), 20 nM on Bub1, 1700 nM in the assay on HeLa (setting [4]) and 160 nM in assay [2].

For the compound `CCOc1cc(F)c(Cn2nc(-c3ncc(CCN)c(Nc4ccnc(NC(C)=O)c4)n3)c3ccccc32)c(F)c1` [Example 2-9-13, N-[4-({5-(2-aminoethyl)-2-[1-(4-ethoxy-2,6-difluorobenzyl)-1H-indazol-3-yl]pyrimidin-4-yl}amino)pyridin-2-yl]acetamide, salt with hydrochloric acid], the IC50 in assay [1] (setting [5]) was 7.1 nM; at Bub1, 160 nM; in the assay on HeLa (setting [4]), 1000 nM; in assay [2], 150 nM.

`COCCOc1cc(F)c(Cn2nc(-c3nc4c(c(Nc5ccnc(C)n5)n3)CC(C)(C)C4)c3ccccc32)c(F)c1` [Example 2-12-61, 2-{1-[2,6-difluoro-4-(2-methoxyethoxy)benzyl]-1H-indazol-3-yl}-6,6-dimethyl-N-(2-methylpyrimidin-4-yl)-6,7-dihydro-5H-cyclopenta[d]pyrimidin-4-amine]: the IC50 in assay [1] (setting [3]) was 74 nM; on Bub1, 2400 nM; in the assay with HeLa (setting [4]), over 10000 nM; in assay [2] it was 130 nM.

In the case of `CCOc1cc(F)c(Cn2nc(-c3nc(C)c(Cl)c(Nc4ccncc4)n3)c3ccccc32)c(F)c1` [Example 2-12-23, 5-chloro-2-[1-(4-ethoxy-2,6-difluorobenzyl)-1H-indazol-3-yl]-6-methyl-N-(pyridin-4-yl)pyrimidin-4-amine], the IC50 in assay [1] (setting [5]) is 23 nM; on Bub1, 10 nM; in the assay on HeLa (setting [4]), over 10000 nM; in assay [2], 380 nM.

As for `CCOc1cc(F)c(Cn2nc(-c3nc4c(c(Nc5ccncc5C)n3)CCC4)c3ccccc32)c(F)c1` [Example 2-14-2, 2-[1-(4-ethoxy-2,6-difluorobenzyl)-1H-indazol-3-yl]-N-(3-methylpyridin-4-yl)-6,7-dihydro-5H-cyclopenta[d]pyrimidin-4-amine], the IC50 is 8 nM in assay [1] (setting [5]), 1.6 nM at Bub1, 1100 nM in the assay on HeLa (setting [4]) and 120 nM in assay [2].

As to `CCOc1cc(F)c(Cn2nc(-c3ncc(CN)c(Nc4ccncc4)n3)c3ccccc32)c(F)c1` [Example 2-9-5, 5-(aminomethyl)-2-[1-(4-ethoxy-2,6-difluorobenzyl)-1H-indazol-3-yl]-N-(pyridin-4-yl)pyrimidin-4-amine, salt with hydrochloric acid], the IC50 in assay [1] (setting [5]) turned out to be 14 nM; on Bub1, 1.8 nM; in the assay with HeLa (setting [4]) it was 1800 nM; in assay [2], 340 nM.

As to `Cc1cc(Nc2nc(-c3nn(Cc4c(F)cc(OCCO)cc4F)c4ccccc34)nc3c2CCC3)c(F)cn1` [Example 2-6-21, 2-{3,5-difluoro-4-[(3-{4-[(5-fluoro-2-methylpyridin-4-yl)amino]-6,7-dihydro-5H-cyclopenta[d]pyrimidin-2-yl}-1H-indazol-1-yl)methyl]phenoxy}ethanol], the IC50 turned out to be 11 nM in assay [1] (setting [3]), 84 nM at Bub1, 3400 nM with HeLa (setting [4]) and 170 nM in assay [2].

Consider `CCOc1cc(F)c(Cn2nc(-c3nc(CS(C)(=O)=O)cc(Nc4ccncc4)n3)c3ccccc32)c(F)c1` [Example 2-3-4, 2-[1-(4-ethoxy-2,6-difluorobenzyl)-1H-indazol-3-yl]-6-[(methylsulfonyl)methyl]-N-(pyridin-4-yl)pyrimidin-4-amine], for which the IC50 in assay [1] (setting [3]) worked out at 5.9 nM; at Bub1 it was 0.52 nM; in the assay on HeLa (setting [4]), 2100 nM; in assay [2] it was 1000 nM.

Consider `CCOc1cc(F)c(Cn2nc(-c3ncc(CC[S@](C)(=N)=O)c(Nc4ccncc4)n3)c3ccccc32)c(F)c1` [Example 2-7-1, 2-[1-(4-ethoxy-2,6-difluorobenzyl)-1H-indazol-3-yl]-5-[2-(S-methylsulfonimidoyl)ethyl]-N-(pyridin-4-yl)pyrimidin-4-amine], for which the IC50 is 6.3 nM in assay [1] (setting [3]), 570 nM at Bub1, 3500 nM in the assay with HeLa (setting [4]) and 450 nM in assay [2].

Turning to `CCOc1cc(F)c(Cn2nc(-c3ncc(C4CCNCC4)c(Nc4ccncc4)n3)c3ccccc32)c(F)c1` [Example 2-9-3, 2-[1-(4-ethoxy-2,6-difluorobenzyl)-1H-indazol-3-yl]-5-(piperidin-4-yl)-N-(pyridin-4-yl)pyrimidin-4-amine, salt with hydrochloric acid], the IC50 in assay [1] (setting [3]) is 5.8 nM; at Bub1 it was > 3000 nM and 4900 nM; in the assay on HeLa (read-out: Biological Assay 2: Proliferation assay (HeLa cell line) median IC50, 4 days, crystal violet), 1100 nM; in assay [2], 240 nM.

`CCOc1cc(F)c(Cn2nc(-c3nc4c(c(Nc5ccncc5C)n3)CCN(Cc3ccccc3)C4)c3ccccc32)c(F)c1` [Example 2-12-16, 7-benzyl-2-[1-(4-ethoxy-2,6-difluorobenzyl)-1H-indazol-3-yl]-N-(3-methylpyridin-4-yl)-5,6,7,8-tetrahydropyrido[3,4-d]pyrimidin-4-amine]: the IC50 in assay [1] (setting [3]) is 290 nM; at Bub1, 57 nM; in the assay with HeLa (setting [4]), 1000 nM; in assay [2] it was 130 nM.

On to `CCOc1cc(F)c(Cn2nc(-c3nc4c(c(Nc5ccncc5F)n3)CCC4)c3ccccc32)c(F)c1` [Example 2-14-1, 2-[1-(4-ethoxy-2,6-difluorobenzyl)-1H-indazol-3-yl]-N-(3-fluoropyridin-4-yl)-6,7-dihydro-5H-cyclopenta[d]pyrimidin-4-amine], for which the IC50 in assay [1] (setting [5]) came out at 9.6 nM; at Bub1, 2.8 nM; with HeLa (setting [4]), 10000 nM; in assay [2] it was 680 nM.

`Cc1cc(Nc2nc(-c3nn(Cc4c(F)cc(OCCO)cc4F)c4ccccc34)nc3c2CCC3)c(C)cn1` [Example 2-6-20, 2-{4-[(3-{4-[(2,5-dimethylpyridin-4-yl)amino]-6,7-dihydro-5H-cyclopenta[d]pyrimidin-2-yl}-1H-indazol-1-yl)methyl]-3,5-difluorophenoxy} ethanol]: the IC50 in assay [1] (setting [5]) stood at 66 nM; at Bub1, 1.8 nM; in the assay with HeLa (setting [4]) it was 3400 nM; in assay [2], 140 nM.

On to `CCOc1cc(F)c(Cn2nc(-c3nc(CN4CCOCC4)cc(Nc4ccnc(C)c4)n3)c3ccccc32)c(F)c1` [Example 2-19-9, 2-[1-(4-ethoxy-2,6-difluorobenzyl)-1H-indazol-3-yl]-N-(2-methylpyridin-4-yl)-6-(morpholin-4-ylmethyl)pyrimidin-4-amine], for which the IC50 in assay [1] (setting [5]) stood at 23 nM; on Bub1, 18 nM; with HeLa (setting [4]) it was 1300 nM; in assay [2] it was 75 nM.

For the compound `CCOc1cc(F)c(Cn2nc(-c3ncc(CCNCC(F)(F)F)c(Nc4ccncc4Cl)n3)c3ccccc32)c(F)c1` [Example 2-20-14, N-(3-chloropyridin-4-yl)-2-[1-(4-ethoxy-2,6-difluorobenzyl)-1H-indazol-3-yl]-5-{2-[(2,2,2-trifluoroethyl)amino]ethyl}pyrimidin-4-amine], the IC50 was 48 nM in assay [1] (setting [3]), 2.6 nM on Bub1, over 10000 nM in the assay with HeLa (setting [4]) and 120 nM in assay [2].

`COCc1cc(Nc2ccncc2C)nc(-c2nn(Cc3c(F)cc(OCCO)cc3F)c3ccccc23)n1` [Example 2-12-50, 2-{3,5-difluoro-4-[(3-{4-(methoxymethyl)-6-[(3-methylpyridin-4-yl)amino]pyrimidin-2-yl}-1H-indazol-1-yl)methyl]phenoxy}eth-anol]: the IC50 in assay [1] (setting [3]) came to 5.4 nM; at Bub1, 23 nM; in the assay with HeLa (setting [4]), 970 nM; in assay [2], 1300 nM.

Turning to `CCOc1cc(F)c(Cn2nc(-c3ncc(CN4CC(F)(F)C4)c(Nc4ccncc4)n3)c3ccccc32)c(F)c1` [Example 2-2-19, 5-[(3,3-difluoroazetidin-1-yl)methyl]-2-[1-(4-ethoxy-2,6-difluorobenzyl)-1H-indazol-3-yl]-N-(pyridin-4-yl)pyrimidin-4-amine], the IC50 was 28 nM in assay [1] (setting [3]), 1800 nM on Bub1, 5400 nM in the assay on HeLa (setting [4]) and 630 nM in assay [2].
